Assay results: patent US10995101B2, “2-oxo-thiazole derivatives as A2A inhibitors and compounds for use in the treatment of cancers” (iTeos Therapeutics SA, priority 2017, dated 2021)

Assays:
A2A receptor = A2A receptor (Homo sapiens, UniProt P29274); test: Inhibition of cAMP production in HEK cells; type: cell-based; conditions: HEK-293 cells with A2A receptor
Experimental: When the A2A receptor is activated, is induces the production of cAMP.
HEK-293 cells with a stable transfection of A2A receptor were bought from PerkinElmer® (# ES-011-C). […] Fresh media without the selection marker was added on the day immediately before the experiment to stop selection pressure.
Stimulation buffer b) mimics the human situation by increasing the amount of albumin present in the assay.
Compounds of the present invention were diluted 100× in either of the buffers depending on the assay performed. […] The total volume of the reaction was 20 μl (10 μl of cells, 5 μl of antagonist and 5 μl of agonist). The reaction was finalized by adding 10 μl of 4× EU-cAMP tracer working solution and 10 μl of 4× ULight-anti-cAMP working solution. The TR-FRET signal was measured after 1 hour using a Spectramax Paradigm (Molecular Devices).

in vitro = conditions: human, Caco-2, pH 7.4
[1] = IC50 (nM) (3 nM NECA as agonist, 0.1% BSA), 3 nM NECA as agonist, 0.1% BSA
[2] = IC50 (nM) (5 nM NECA as agonist, 2% HSA), 5 nM NECA as agonist, 2% HSA
[3] = IC50 (nM) (5 μM Adenosine as agonist, 2.0% HSA), 5 μM Adenosine as agonist, 2.0% HSA

A2A receptor, sequence (P29274 whole entry): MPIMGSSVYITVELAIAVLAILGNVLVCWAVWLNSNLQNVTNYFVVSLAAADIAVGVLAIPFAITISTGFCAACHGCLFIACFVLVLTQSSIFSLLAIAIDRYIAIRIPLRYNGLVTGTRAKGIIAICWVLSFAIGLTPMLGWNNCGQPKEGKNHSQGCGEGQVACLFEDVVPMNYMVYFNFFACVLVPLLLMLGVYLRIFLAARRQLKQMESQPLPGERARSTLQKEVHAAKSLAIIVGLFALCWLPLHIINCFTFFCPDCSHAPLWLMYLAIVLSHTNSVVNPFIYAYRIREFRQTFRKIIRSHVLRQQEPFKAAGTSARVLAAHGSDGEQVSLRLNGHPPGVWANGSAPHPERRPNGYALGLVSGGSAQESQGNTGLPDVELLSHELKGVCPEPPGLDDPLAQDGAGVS

Row | SMILES | IC50 (A2A receptor; [1]) | IC50 (A2A receptor; [2]) | IC50 (A2A receptor; [3]) | efflux ratio at 120 min, 2 μM (in vitro)
1 | C[S@+]([O-])CCOc1ccc(N2CCN(CCn3c(=O)sc4c3nc(N)n3nc(-c5ccco5)nc43)CC2)c(F)c1 (single isomer, unassigned) [Compound 5] | 0.4 nM | 8 nM | 241 nM | 67
2 | C[S@@+]([O-])CCOc1ccc(N2CCN(CCn3c(=O)sc4c3nc(N)n3nc(-c5ccco5)nc43)CC2)c(F)c1 (single isomer, unassigned) [Compound 6] | 0.5 nM | 8 nM | 179 nM | 59
3 | C[S@@+]([O-])c1ccc(N2CCN(CCn3c(=O)sc4c3nc(N)n3nc(-c5ccco5)nc43)CC2)c(F)c1 (single isomer, unassigned) [Compound 119] | 0.4 nM |  | 183 nM | 31
4 | C[S@+]([O-])c1ccc(N2CCN(CCn3c(=O)sc4c3nc(N)n3nc(-c5ccco5)nc43)CC2)c(F)c1 (single isomer, unassigned) [Compound 120] | 0.4 nM |  | 123 nM | 33
5 | Nc1nc2c(sc(=O)n2CCN2CCN(c3ccc(O[C@H]4CC[S@@+]([O-])CC4)cc3F)CC2)c2nc(-c3ccco3)nn12 (single isomer, unassigned) [Compound 121, 5-amino-3-(2-(4-(2-fluoro-4-(((1s,4s)-1-oxidotetrahydro-2H-thiopyran-4-yl)oxy)phenyl)piperazin-1-yl)ethyl)-8-(furan-2-yl)thiazolo[5,4-e][1,2,4]triazolo[1,5-c]pyrimidin-2(3H)-one] | 0.8 nM |  | 232 nM | 90
6 | Nc1nc2c(sc(=O)n2CCN2CCN(c3ccc(O[C@H]4CC[S@+]([O-])CC4)cc3F)CC2)c2nc(-c3ccco3)nn12 (single isomer, unassigned) [Compound 122, 5-amino-3-(2-(4-(2-fluoro-4-(((1r,4r)-1-oxidotetrahydro-2H-thiopyran-4-yl)oxy)phenyl)piperazin-1-yl)ethyl)-8-(furan-2-yl)thiazolo[5,4-e][1,2,4]triazolo[1,5-c]pyrimidin-2(3H)-one] | 0.8 nM |  | 187 nM | 349
7 | Nc1nc2c(sc(=O)n2CCN2CCN(c3cc(O[C@@H]4CNC[C@H]4F)c(F)cc3F)CC2)c2nc(-c3ccco3)nn12 (stereo in doubt) [Compound 91, 5-amino-3-(2-(4-(2,4-difluoro-5-(((3R,4R)-4-fluoropyrrolidin-3-yl)oxy)phenyl)piperazin-1-yl)ethyl)-8-(furan-2-yl)thiazolo[5,4-e][1,2,4]triazolo[1,5-c]pyrimidin-2(3H)-one] | 0.8 nM |  | 168 nM | 195
8 | Nc1nc2c(sc(=O)n2CCN2CCN(c3ccncc3F)CC2)c2nc(-c3ccco3)nn12 [Compound 3, 5-amino-3-(2-(4-(3-fluoropyridin-4-yl)piperazin-1-yl)ethyl)-8-(furan-2-yl)thiazolo[5,4-e][1,2,4]triazolo[1,5-c]pyrimidin-2(3H)-one] |  |  |  | 4
9 | Nc1nc2c(sc(=O)n2CCN2CCN(c3ccc(OCCO)cc3)CC2)c2nc(-c3ccco3)nn12 [Compound 9, 5-amino-8-(furan-2-yl)-3-(2-(4-(4-(2-hydroxyethoxy)phenyl)piperazin-1-yl)ethyl)thiazolo[5,4-e][1,2,4]triazolo[1,5-c]pyrimidin-2(3H)-one] | 3.4 nM |  |  | 8
10 | Nc1nc2c(sc(=O)n2CCN2CCN(c3ccc(OCC(=O)O)cc3)CC2)c2nc(-c3ccco3)nn12 [Compound 10, 2-(4-(4-(2-(5-amino-8-(furan-2-yl)-2-oxothiazolo[5,4-e][1,2,4]triazolo[1,5-c]pyrimidin-3(2H)-yl)ethyl)piperazin-1-yl)phenoxy)acetic acid] | 2.3 nM | 14 nM | 607 nM | 24
11 | Nc1nc2c(sc(=O)n2CCN2CCN(c3ccc(OCC(=O)N4CCNCC4)cc3F)CC2)c2nc(-c3ccco3)nn12 [Compound 24, 5-amino-3-(2-(4-(2-fluoro-4-(2-oxo-2-(piperazin-1-yl)ethoxy)phenyl)piperazin-1-yl)ethyl)-8-(furan-2-yl)thiazolo[5,4-e][1,2,4]triazolo[1,5-c]pyrimidin-2(3H)-one] | 0.8 nM | 2 nM | 137 nM | 117
12 | CN(CCOc1ccc(N2CCN(CCn3c(=O)sc4c3nc(N)n3nc(-c5ccco5)nc43)CC2)c(F)c1)CC(N)=O [Compound 46, 2-((2-(4-(4-(2-(5-amino-8-(furan-2-yl)-2-oxothiazolo[5,4-e][1,2,4]triazolo[1,5-c]pyrimidin-3(2H)-yl)ethyl)piperazin-1-yl)-3-fluorophenoxy)ethyl)(methyl)amino)acetamide] |  |  |  | 30
13 | Nc1nc2c(sc(=O)n2CCN2CCN(c3cc(OCCCC(=O)O)c(F)cc3F)CC2)c2nc(-c3ccco3)nn12 [Compound 65, 4-(5-(4-(2-(5-amino-8-(furan-2-yl)-2-oxothiazolo[5,4-e][1,2,4]triazolo[1,5-c]pyrimidin-3(2H)-yl)ethyl)piperazin-1-yl)-2,4-difluorophenoxy)butanoic acid] | 0.6 nM | 27 nM | 494 nM | 
14 | CCOC(=O)COc1cc(N2CCN(CCn3c(=O)sc4c3nc(N)n3nc(-c5ccco5)nc43)CC2)c(F)cc1F [Compound 73, ethyl 2-(5-(4-(2-(5-amino-8-(furan-2-yl)-2-oxothiazolo[5,4-e][1,2,4]triazolo[1,5-c]pyrimidin-3(2H)-yl)ethyl)piperazin-1-yl)-2,4-difluorophenoxy)acetate] | 3.4 nM | 8 nM | 304 nM | 
15 | Nc1nc2c(sc(=O)n2CCN2CCN(c3ccncc3)CC2)c2nc(-c3ccco3)nn12 [Compound 75, 5-amino-8-(furan-2-yl)-3-(2-(4-(pyridin-4-yl)piperazin-1-yl)ethyl)thiazolo[5,4-e][1,2,4]triazolo[1,5-c]pyrimidin-2(3H)-one] | 24 nM | 100 nM |  | 
16 | Nc1nc2c(sc(=O)n2CCN2CCN(c3ccncn3)CC2)c2nc(-c3ccco3)nn12 [Compound 76, 5-amino-8-(furan-2-yl)-3-(2-(4-(pyrimidin-4-yl)piperazin-1-yl)ethyl)thiazolo[5,4-e][1,2,4]triazolo[1,5-c]pyrimidin-2(3H)-one] | 5 nM | 151 nM |  | 
17 | CN(C)CCNC(=O)c1cc(N2CCN(CCn3c(=O)sc4c3nc(N)n3nc(-c5ccco5)nc43)CC2)c(F)cc1F [Compound 81, 5-(4-(2-(5-amino-8-(furan-2-yl)-2-oxothiazolo[5,4-e][1,2,4]triazolo[1,5-c]pyrimidin-3(2H)-yl)ethyl)piperazin-1-yl)-N-(2-(dimethylamino)ethyl)-2,4-difluorobenzamide] | 117 nM |  |  | 
18 | Nc1nc2c(sc(=O)n2CCN2CCN(c3cc(O[C@@H]4CNC[C@@H]4F)c(F)cc3F)CC2)c2nc(-c3ccco3)nn12 [Compound 93, 5-amino-3-(2-(4-(2,4-difluoro-5-(((3R,4S)-4-fluoropyrrolidin-3-yl)oxy)phenyl)piperazin-1-yl)ethyl)-8-(furan-2-yl)thiazolo[5,4-e][1,2,4]triazolo[1,5-c]pyrimidin-2(3H)-one] | 0.4 nM |  | 33 nM | 
19 | Nc1nc2c(sc(=O)n2CCN2CCN(c3cc(O[C@H]4CNC[C@H]4F)c(F)cc3F)CC2)c2nc(-c3ccco3)nn12 [Compound 94, 5-amino-3-(2-(4-(2,4-difluoro-5-(((3S,4R)-4-fluoropyrrolidin-3-yl)oxy)phenyl)piperazin-1-yl)ethyl)-8-(furan-2-yl)thiazolo[5,4-e][1,2,4]triazolo[1,5-c]pyrimidin-2(3H)-one] |  |  |  | 173
20 | Nc1nc2c(sc(=O)n2CCN2CCN(c3cc(OCC(=O)NCCN4CCOCC4)c(F)cc3F)CC2)c2nc(-c3ccco3)nn12 [Compound 97, 2-(5-(4-(2-(5-amino-8-(furan-2-yl)-2-oxothiazolo[5,4-e][1,2,4]triazolo[1,5-c]pyrimidin-3(2H)-yl)ethyl)piperazin-1-yl)-2,4-difluorophenoxy)-N-(2-morpholinoethyl)acetamide] | 1.1 nM |  | 30 nM | 
21 | Nc1nc2c(sc(=O)n2CCN2CCN(c3ccc(OCC(=O)NCCN4CCOCC4)cc3F)CC2)c2nc(-c3ccco3)nn12 [Compound 105, 2-(4-(4-(2-(5-amino-8-(furan-2-yl)-2-oxothiazolo[5,4-e][1,2,4]triazolo[1,5-c]pyrimidin-3(2H)-yl)ethyl)piperazin-1-yl)-3-fluorophenoxy)-N-(2-morpholinoethyl)acetamide] | 0.7 nM |  | 95 nM | 
22 | Nc1nc2c(sc(=O)n2CCN2CCN(c3ccc(C(=O)NCCN4CCOCC4)cc3F)CC2)c2nc(-c3ccco3)nn12 [Compound 106, 4-(4-(2-(5-amino-8-(furan-2-yl)-2-oxothiazolo[5,4-e][1,2,4]triazolo[1,5-c]pyrimidin-3(2H)-yl)ethyl)piperazin-1-yl)-3-fluoro-N-(2-morpholinoethyl)benzamide] | 0.3 nM |  | 205 nM | 
23 | Nc1nc2c(sc(=O)n2CCN2CCN(c3cc(OC[C@@H](O)CO)c(F)cc3F)CC2)c2nc(-c3ccco3)nn12 [Compound 127, (S)-5-amino-3-(2-(4-(5-(2,3-dihydroxypropoxy)-2,4-difluorophenyl)piperazin-1-yl)ethyl)-8-(furan-2-yl)thiazolo[5,4-e][1,2,4]triazolo[1,5-c]pyrimidin-2(3H)-one] | 0.5 nM |  | 35 nM | 
